# The supplement of paper PMC10307832
# Columns and labels:
# Test in all cases: relative viability (nuclei count vs DMSO), 5 days (fraction); higher = more cells survive
# [1] = compound: Cc1cc([C@@H](C)Nc2ccccc2C(=O)O)c2nc(N3CCOCC3)cc(=O)n2c1 [AZD6482] + CC(=O)Nc1cccc(-n2c(=O)n(C3CC3)c(=O)c3c(Nc4ccc(I)cc4F)n(C)c(=O)c(C)c32)c1 [Trametinib] (partner 0.02 µM)
# How it was run: (§1)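 Cells from lung cancer lines were seeded into 1536-well plates and, one day later, dosed by pin tool. Treatments were either a single drug or a fixed dose of an anchor drug with five library-drug doses (not always all listed) in √10 steps. After 5 days, nuclei were stained in a one-step fixation (final 0.05% Triton X-100, 1% formaldehyde, 1 ug/ml Hoechst) and counted on 4× images, and relative viability is the treated-to-vehicle nuclei ratio, as the median of duplicate plates.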
# [2] = compound: Cc1cc([C@@H](C)Nc2ccccc2C(=O)O)c2nc(N3CCOCC3)cc(=O)n2c1 [AZD6482] + NC(=O)Nc1cc(-c2cccc(F)c2)sc1C(=O)N[C@H]1CCCNC1 [AZD7762] (partner 0.2 µM)
# How it was run: as §1
# [3] = compound: COc1cc2nc(N3CCCN(C)CC3)nc(NC3CCN(Cc4ccccc4)CC3)c2cc1OC + Nc1ncn([C@H]2C[C@H](O)[C@@H](CO)O2)c(=O)n1 [Decitabine] (partner 2 µM)
# How it was run: as §1
# [4] = compound: COc1cc2nc(N3CCCN(C)CC3)nc(NC3CCN(Cc4ccccc4)CC3)c2cc1OC + CS(=O)(=O)N1CCN(Cc2cc3nc(-c4cccc5[nH]ncc45)nc(N4CCOCC4)c3s2)CC1 [Pictilisib] (partner 1 µM)
# How it was run: as §1
Cell Line,relative viability ([1]; first compound 0.08 µM),relative viability ([1]; first compound 0.253 µM),relative viability ([1]; first compound 0.8 µM),relative viability ([1]; first compound 2.53 µM),relative viability ([1]; first compound 8 µM),relative viability ([2]; first compound 0.08 µM),relative viability ([2]; first compound 0.253 µM),relative viability ([2]; first compound 0.8 µM),relative viability ([2]; first compound 2.53 µM),relative viability ([2]; first compound 8 µM),relative viability ([3]; first compound 0.2 µM),relative viability ([3]; first compound 0.6325 µM),relative viability ([3]; first compound 2 µM),relative viability ([3]; first compound 6.325 µM),relative viability ([4]; first compound 0.2 µM),relative viability ([4]; first compound 0.6325 µM),relative viability ([4]; first compound 2 µM),relative viability ([4]; first compound 6.325 µM)
201T,0.694,0.698,0.704,0.653,0.708,0.739,0.669,0.615,0.611,0.565,0.889,0.812,0.859,0.799,0.742,0.717,0.64,0.683
A549,,,,,,,,,,,0.227,0.238,0.263,,0.551,0.569,0.622,0.473
A-427,0.628,0.783,0.691,0.548,0.612,0.645,0.804,0.684,0.451,0.627,0.602,0.551,0.589,0.531,0.755,0.728,0.679,0.675
ABC-1,,,,,,0.825,0.892,0.695,0.772,0.638,0.969,1.09,0.929,1.19,0.618,0.926,0.699,0.611
BEN,0.898,0.947,1.02,0.866,0.817,0.664,0.68,0.779,0.457,0.646,0.765,0.743,0.914,0.699,0.571,0.643,0.69,0.572
CAL-12T,0.308,0.276,0.234,0.185,0.302,0.686,0.647,0.677,0.468,0.665,,,,,0.402,0.53,0.388,0.34
COR-L23,0.553,0.598,0.652,0.403,0.521,,,,,,0.466,0.477,0.527,0.471,0.843,0.701,0.931,0.772
COR-L 105,0.378,0.451,0.46,0.383,0.423,,,,,,0.687,0.685,0.648,0.492,0.349,0.435,0.34,0.327
Calu-6,,,,,,,,,,,,,,,0.924,0.978,0.953,0.743
ChaGo-K-1,0.922,0.874,0.878,0.803,0.857,0.897,0.775,0.946,0.823,0.915,0.553,0.506,0.49,0.504,0.752,0.87,1.12,0.49
EBC-1,,,,,,,,,,,,,,,0.337,0.392,0.248,0.132
EKVX,0.293,0.291,0.286,0.242,0.203,0.564,0.666,0.538,0.478,0.494,0.329,0.318,0.343,0.27,0.466,0.46,0.357,0.4
EMC-BAC-2,0.841,0.956,0.893,0.667,0.706,1.03,0.958,1.02,0.818,0.679,0.997,0.968,0.882,0.915,0.559,0.555,0.564,0.57
EPLC-272H,0.251,0.213,0.27,0.234,0.194,0.531,0.151,0.298,0.197,0.207,0.392,0.387,0.341,0.38,0.314,0.439,0.303,0.305
H3255,0.604,0.551,0.575,0.402,0.367,0.895,0.83,0.984,0.697,0.692,0.576,0.626,0.601,0.588,0.487,0.397,0.529,0.422
HARA,0.538,0.496,0.453,0.336,0.352,0.424,0.338,0.269,0.224,0.516,0.548,0.556,0.697,0.442,0.395,0.53,0.453,0.308
HCC-15,0.356,0.348,0.33,0.271,0.273,1.24,1.4,1.26,1.18,1.11,0.688,0.875,0.649,0.495,0.744,0.883,0.701,0.618
HCC-44,0.926,1.07,1.08,1.08,0.858,0.897,0.997,1.1,1.11,1.38,1.01,0.855,0.936,0.944,0.616,0.693,0.563,0.605
HCC-78,0.547,0.496,0.57,0.345,0.417,0.671,0.388,0.57,0.327,0.409,0.642,0.683,0.729,0.712,0.206,0.212,0.207,0.188
HCC-366,0.266,0.279,0.286,0.182,0.193,0.23,0.243,0.253,0.179,0.25,0.334,0.292,0.358,0.309,0.15,0.168,0.098,0.154
HCC-827,0.47,0.462,0.473,0.346,0.251,0.351,0.184,0.162,0.131,0.137,0.172,0.315,0.221,0.326,1.04,1.09,0.636,0.886
